From ChEMBL document CHEMBL3639007, “Cyclohexyl amide derivatives as CRF receptor antagonists” (2014) come the findings set out here.

Each structure is given as a SMILES string. Where “and” joins values, the source holds several entries; their conditions need not be identical. Equal entries are not always repeated.

For one test, the target named is T1, Corticotropin-releasing factor receptor 1 (Homo sapiens, UniProt P34998).
T1 sequence (P34998 whole entry): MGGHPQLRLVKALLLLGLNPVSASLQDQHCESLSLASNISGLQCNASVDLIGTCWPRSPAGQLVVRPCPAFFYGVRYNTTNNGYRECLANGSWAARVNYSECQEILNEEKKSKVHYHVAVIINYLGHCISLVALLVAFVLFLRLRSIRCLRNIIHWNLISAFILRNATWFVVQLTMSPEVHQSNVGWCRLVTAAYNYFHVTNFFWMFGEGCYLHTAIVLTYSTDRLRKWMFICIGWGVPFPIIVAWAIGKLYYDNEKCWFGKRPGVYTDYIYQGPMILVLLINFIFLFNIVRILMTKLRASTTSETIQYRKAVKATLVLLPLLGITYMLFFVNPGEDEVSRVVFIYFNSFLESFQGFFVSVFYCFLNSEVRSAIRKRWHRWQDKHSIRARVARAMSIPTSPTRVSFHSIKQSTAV
Briefly: (§1) Homogeneous Time-Resolved Fluorescence Assay: Chinese hamster ovary (CHO) cells expressing either the human or rat recombinant CRF-1 or human CRF-2alpha (Chen et al, Proc Natl Acad Sci USA 90, 8967-8971, 1993; Liaw et al, Endocrinology 137, 72-77, 1996) are propagated in Dulbecco's modified Eagle medium supplemented with 10% foetal calf serum, non-essential amino acids, 100 U/ml penicillin, 100 mg/l streptomycin and 1 g/l geneticin. CHO cells expressing the rat CRF-2beta receptor (Wu et al, Endocrinology 148, 1675-1687, 2007) are propagated in HAM's-F12 Glutamax supplemented with 10% foetal calf serum, 100 IU/ml penicillin, 100 mg/l streptomycin, 600 ug/ml hygromycin, 10 ug/ml blasticidin and induced with 1 ug/ml of tetracyclin for 24 hours prior to experimentation. For cyclic AMP determinations the Homogeneous Time-Resolved Fluoresce (HTRF) CAMP dynamic 2 kit (Cisbio International, France) was used as per manufacturers' instructions. The class given is cell-based. (In TR-FRET formats the signal depends on donor and acceptor labels being close together.)
The term IC50 denotes the midpoint of a concentration-inhibition curve. On to `Cc1ncc(Cl)cc1C(=O)N[C@H]1CC[C@H](Cn2nc(C)c(Cl)c2C)CC1`, for which the IC50 amounted to 256 nM. On the same count and under the same terms, the result for `Cc1cc(C)n(C[C@H]2CC[C@H](NC(=O)c3cc(Cl)cnc3C)CC2)n1` reads 88 nM and 262 nM; that for `CCc1[nH]nc(NC[C@H]2CC[C@H](NC(=O)c3cc(Cl)cnc3C)CC2)c1C`, 134 nM. On the same count and under the same terms, to `COc1ccc(-c2c(NC[C@H]3CC[C@H](NC(=O)c4cc(C(F)(F)F)ccc4Cl)CC3)n[nH]c2C)c(Cl)c1` belongs 35 nM; to `CCc1cc(CC)n(C[C@H]2CC[C@H](NC(=O)c3cc(Cl)cnc3C)CC2)n1`, 160 nM. The same measure, in the same setting: to `Cc1ncc(Cl)cc1C(=O)N[C@H]1CC[C@H](Cn2cc3c(n2)CCCC3)CC1` belongs 318 nM; to `Cc1cn(C[C@H]2CC[C@H](NC(=O)c3cc(C(F)(F)F)ccc3Cl)CC2)nc1C`, 167 nM. Take `O=C(N[C@H]1CC[C@H](Cn2ncc3c2CCC3)CC1)c1cc(C(F)(F)F)ccc1Cl`: the 50% inhibitory concentration (IC50) turned out to be 170 nM. The same measure, in the same setting: to `Cc1ncc(Cl)cc1C(=O)N[C@H]1CC[C@@H](Cn2nc(-c3ccc(F)cc3)cc2C)CC1` belongs 180 nM; to `Cc1ncc(Cl)cc1C(=O)N[C@H]1CC[C@H](Cn2nc(-c3cccnc3)cc2C)CC1`, 142 nM; to `Cc1cc(C)n(C[C@H]2CC[C@H](NC(=O)c3cc(C(F)(F)F)cnc3C)CC2)n1`, 634 nM. The same measure, in the same setting: the result for `COc1ccc(-c2cc(C)n(C[C@H]3CC[C@H](NC(=O)c4cc(C(F)(F)F)ccc4Cl)CC3)n2)cc1` reads 82 nM. As to `Cc1cc(-c2ccc3c(c2)OCO3)nn1C[C@H]1CC[C@H](NC(=O)c2cc(C(F)(F)F)ccc2Cl)CC1`, the IC50 was determined as 59 nM. Same read-out and setting: to `Cc1cc(CO)n(C[C@H]2CC[C@H](NC(=O)c3cc(Cl)cnc3C)CC2)n1` belongs 6960 nM. In the case of `Cc1ncc(Cl)cc1C(=O)N[C@H]1CC[C@H](Cn2nc(CO)cc2C)CC1`, the IC50 was found to be 665 nM.

As for `CCc1cc(CC)n(C[C@H]2CC[C@H](NC(=O)c3cc(C(F)(F)F)ccc3Cl)CC2)n1`, the IC50 turned out to be 21 nM. The same measure, in the same setting: to `COc1cc(C)nn1C[C@H]1CC[C@H](NC(=O)c2cc(C(F)(F)F)ccc2Cl)CC1` belongs 67 nM; to `Cc1cnn(C[C@H]2CC[C@H](NC(=O)c3cc(C(F)(F)F)ccc3Cl)CC2)c1`, 132 nM; to `O=C(N[C@H]1CC[C@H](Cn2cc(Cl)c(CO)n2)CC1)c1cc(C(F)(F)F)ccc1Cl`, 95 nM. The same measure, in the same setting: the result for `CCc1cc(C)nn1C[C@H]1CC[C@H](NC(=O)c2cc(C(F)(F)F)ccc2Cl)CC1` reads 22 nM.

The target in a further test is T2, Corticotropin-releasing factor receptor 2 (Homo sapiens, UniProt Q13324).
T2 sequence (Q13324 whole entry): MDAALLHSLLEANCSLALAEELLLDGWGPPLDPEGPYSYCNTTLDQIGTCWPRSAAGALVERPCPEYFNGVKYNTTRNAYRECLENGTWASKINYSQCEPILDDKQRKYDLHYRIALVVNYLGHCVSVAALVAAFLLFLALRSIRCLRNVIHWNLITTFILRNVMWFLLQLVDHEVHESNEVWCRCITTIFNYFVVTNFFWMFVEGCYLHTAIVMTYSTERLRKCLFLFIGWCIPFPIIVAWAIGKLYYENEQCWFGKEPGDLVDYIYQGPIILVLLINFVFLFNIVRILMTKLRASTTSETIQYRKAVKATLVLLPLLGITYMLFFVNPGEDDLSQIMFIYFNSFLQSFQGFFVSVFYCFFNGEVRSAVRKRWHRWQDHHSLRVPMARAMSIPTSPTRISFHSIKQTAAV
Described as §1. Type of test: cell-based.
As to `CCc1[nH]nc(NC[C@H]2CC[C@H](NC(=O)c3cc(Cl)cnc3C)CC2)c1C`, the IC50 stood at 4.88 µM.

On to `Cc1ncc(Cl)cc1C(=O)N[C@H]1CC[C@@H](Cn2nc(-c3ccccc3)cc2C)CC1`, for which the IC50 was 4.94 µM. The same measure, in the same setting: the result for `Cc1ncc(Cl)cc1C(=O)N[C@H]1CC[C@@H](Cn2nc(-c3ccc(F)cc3)cc2C)CC1` reads 4.63 µM. For the molecule `Cc1ncc(Cl)cc1C(=O)N[C@H]1CC[C@H](Cn2nc(-c3cccnc3)cc2C)CC1`, the IC50 was found to be 3.74 µM. Still for that read-out and setting: the result for `O=C(N[C@H]1CC[C@H](Cn2cc(Cl)c(CO)n2)CC1)c1cc(C(F)(F)F)ccc1Cl` reads 4.85 µM; that for `CCc1cc(C)n(C[C@H]2CC[C@H](NC(=O)c3cc(C(F)(F)F)ccc3Cl)CC2)n1`, 2.03 µM.
